# Results from publication PMC3440086, “Profiling Environmental Chemicals for Activity in the Antioxidant Response Element Signaling Pathway Using a High Throughput Screening Approach” (Environmental Health Perspectives, 2012).
# Entries after “also recorded” stand apart in the source; their conditions may differ. Like-named read-outs stand apart in the source and are kept apart here.
# Key:
# [1] = system: mitogen-activated protein kinase (MAPK) pathway; conditions: cited from earlier work
# mutated ARE = type: cell-based
# [2] = system: Nrf2-dependent ARE transcriptional activity; experiment: ARE-luc luciferase reporter gene assay in HepG2 cells (qHTS); type: cell-based; set-up: Emax: reference not given here; conditions: for EC50 / Emax: Homo sapiens; for EC50: read-out: ARE-luc EC50
# [3] = system: antioxidant response element (ARE) signaling pathway; experiment: ARE-bla β-lactamase reporter gene assay in HepG2 cells (qHTS); type: cell-based, human; conditions: for EC50 / Emax: Homo sapiens; for EC50: read-out: ARE-bla EC50
# olfactory mucosa = system: olfactory mucosa; set-up: method as in Genter et al. 2002; conditions: olfactory mucosa of treated rats; ref Genter et al. 2002; cited from earlier work
# [4] = system: hypoxia-inducible factor 1; set-up: method as in Xia et al. 2009; conditions: β-lactamase reporter gene assay; ref Xia et al. 2009; cited from earlier work
# ROS = system: ROS; set-up: method as in Chen et al. 2009; conditions: cell-based testing; ref Chen et al. 2009; cited from earlier work
# [5] = HepG2, confirmation/follow-up studies, activation of ARE reporter as % of positive control (β-napthoflavone), read-out: ARE-luc Efficacy
# [6] = confirmation/follow-up studies, HepG2, 16 hr exposure, mean ± SD
# [7] = HepG2, confirmation/follow-up studies, activation of ARE reporter as % of positive control (β-napthoflavone), read-out: ARE-bla Efficacy
# [8] = follow-up studies, up to 46 µM, listed as iodochlorohydroxyquinoline
smiles,measurement,setting,value
Oc1cccc2cccnc12 [8-Hydroxyquinoline],induction of MAPK pathway,[1],shown to induce
same,ARE-bla mutant IC50,mutated ARE,inactive
same,activity in ARE-luc assay (words),[2],active; also recorded: demonstrated activity
same,EC50,"[2]; HepG2, 16 h",10.1 ± 3.9 µM
same,Emax,"[2]; HepG2, read-out: ARE-luc Efficacy",200%
same,activity in ARE-bla assay (words),[3],active; also recorded: demonstrated activity
same,EC50,"[3]; HepG2, 16 h",16.1 ± 5.1 µM
same,Emax,"[3]; HepG2, read-out: ARE-bla Efficacy",53%
CCc1cccc(CC)c1N(COC)C(=O)CCl [Alachlor],genes associated with the generation of ROS and resulting oxidative damage,olfactory mucosa,up-regulation
same,ARE-bla mutant IC50,"mutated ARE; confirmation/follow-up studies, HepG2, mean ± SD",inactive
same,Emax,[2]; [5],127%
same,EC50,[2]; [6],19.9 ± 7.1 µM
same,activity in ARE-luc assay (words),"[2]; follow-up studies, up to 46 µM",active; also recorded: demonstrated activity
same,Emax,[3]; [7],106%
same,EC50,[3]; [6],5.9 ± 1.7 µM
same,activity in ARE-bla assay (words),"[3]; follow-up studies, up to 46 µM",active; also recorded: demonstrated activity
Oc1c(I)cc(Cl)c2cccnc12 [Iodochlorohydroxyquinoline],activation of hypoxia-inducible factor 1,[4],activate
same,ARE-bla mutant Efficacy,"mutated ARE; confirmation/follow-up studies, normalized to DMSO (0%) and ARE-bla maximal β-napthoflavone response (100%)",21%
same,activity in ARE-bla-mut assay (words),mutated ARE; [8],may exhibit autofluorescence; also recorded: active; also recorded: demonstrated activity
same,Emax,[2]; [5],147%
same,EC50,[2]; [6],10 ± 1.2 µM
same,activity in ARE-luc assay (words),"[2]; follow-up studies, up to 46 µM",active
same,activity in ARE-luc assay (words),[2]; [8],demonstrated activity
same,Emax,[3]; [7],41%
same,EC50,[3]; [6],17.2 ± 6 µM
same,activity in ARE-bla assay (words),"[3]; follow-up studies, up to 46 µM",active
same,activity in ARE-bla assay (words),[3]; [8],demonstrated activity
same,generation of ROS,ROS,confirmed
